The test system of experiment [1] is B16-F10. Description: Cytotoxicity against mouse B16-F10 cells assessed as cell viability at 3000 uM incubated for 48 hrs relative to control. The conditions noted are these: read-out: Activity. Format: functional.
The test system of experiment [2] is B16-F10. Description: Cytotoxicity against mouse B16-F10 cells assessed as cell viability at 3000 uM incubated for 72 hrs relative to control. The conditions noted are these: for viability at 3000 µM: read-out: Activity. Format: functional.
The subject of experiment [3] is B16-F10. Description: Cytotoxicity against mouse B16-F10 cells assessed as cell viability at 3000 uM incubated for 24 hrs relative to control. To be noted: for viability at 3000 µM: read-out: Activity. It counts as functional.
Experiment [4] relates to B16-F10. Description: Cytotoxicity against mouse B16-F10 cells assessed as cell viability at 3 to 3000 uM measured after 48 to 72 hrs. Format: functional, cell-based. The conditions noted are these: dose 3-3000 µM, time 48-72 hrs.
Experiment [5] relates to B16-F10. Description: Cytotoxicity against mouse B16-F10 cells assessed as cell viability at 300 uM incubated for 72 hrs relative to control. Format: functional. The conditions noted are these: for viability at 300 µM: read-out: Activity.
Experiment [6] has as its system B16-F10. Description: Cytotoxicity against mouse B16-F10 cells assessed as cell viability at 300 uM incubated for 48 hrs relative to control. It counts as functional. The conditions noted are these: read-out: Activity.
Experiment [7] relates to B16-F10. Description: Cytotoxicity against mouse B16-F10 cells assessed as decrease in cell viability at 3000 uM incubated for 72 hrs. It counts as functional, cell-based.
Experiment [8] has as its system B16-F10. Description: Cytotoxicity against mouse B16-F10 cells assessed as cell viability at 300 uM incubated for 24 hrs relative to control. Format: functional. The conditions noted are these: read-out: Activity.
The subject of experiment [9] is B16-F10. Description: Cytotoxicity against mouse B16-F10 cells assessed as cell viability at 300 uM measured immediately relative to control. It counts as functional. To be noted: read-out: Activity.
Experiment [10] deals with B16-F10. Description: Cytotoxicity against mouse B16-F10 cells assessed as cell viability at 30 uM incubated for 48 hrs relative to control. It counts as functional. The conditions noted are these: read-out: Activity.
Experiment [11] has as its system B16-F10. Description: Cytotoxicity against mouse B16-F10 cells assessed as cell viability at 30 uM incubated for 72 hrs relative to control. Format: functional. The conditions noted are these: read-out: Activity.
In experiment [12] the test system is B16-F10. Description: Cytotoxicity against mouse B16-F10 cells assessed as cell viability at 3 uM incubated for 48 hrs relative to control. It counts as functional. To be noted: read-out: Activity.

Calls of active or inactive are those of the source. The rule behind the calls is not given here.

For `CCCCCCC1=NN(C(N)=S)C(O)(C(F)(F)F)C1` (stereo not drawn), the viability at 3000 µM came out at 8% in the experiment on B16-F10 [1], 8% with B16-F10 [2] and 16% in the experiment with B16-F10 [3].

Take `CC1=NN(C(N)=S)C(O)(C(F)(F)F)C1` (stereo not drawn): the viability at 3000 µM was determined as 9% with B16-F10 [1] and 4% in the experiment on B16-F10 [2]. For the same molecule, the outcome with B16-F10 [3] was Active.

With `NC(=S)N1N=CCC1(O)C(F)(F)F` (stereo not drawn), the inhibition entry in the experiment on B16-F10 [4] was “Active”.

Regarding `CCCCCCC1=NN(C(N)=O)C(O)(C(F)(F)F)C1` (stereo not drawn), the viability at 3000 µM worked out at 8% in the experiment on B16-F10 [1] and 76% in the experiment with B16-F10 [3]. The result in the experiment with B16-F10 [2] and with B16-F10 [5] was Active. In addition, the viability at 300 µM in the experiment with B16-F10 [6] was 53%.

With `CCCCCCCCCCCC1=NN(C(N)=O)C(O)(C(F)(F)F)C1` (stereo not drawn), the result in the experiment on B16-F10 [7] was Active. In addition, the viability at 300 µM with B16-F10 [8] was determined as 17%; in the experiment on B16-F10 [9], 78%; in the experiment with B16-F10 [6] it was 16%. The viability at 30 µM in the experiment with B16-F10 [10] turned out to be 76%; in the experiment with B16-F10 [11], 51%.

For `NC(=O)N1N=CCC1(O)C(F)(F)F` (stereo not drawn), the viability at 3000 µM was 17% with B16-F10 [1] and 7% with B16-F10 [2]. In addition, the figures for the viability at 300 µM in the experiment with B16-F10 [5] and in the experiment with B16-F10 [6] were 17% and 43%, respectively.

Consider `CC1=NN(C(N)=O)C(O)(C(F)(F)F)C1` (stereo not drawn), for which the outcome in the experiment with B16-F10 [7] was Active.

For the molecule `CCCCCCCCCCCC1=NN(C(N)=S)C(O)(C(F)(F)F)C1` (stereo not drawn), the viability at 300 µM is 17% in the experiment with B16-F10 [8], 10% in the experiment with B16-F10 [5] and 18% in the experiment with B16-F10 [6]. For the same molecule, the viability at 30 µM with B16-F10 [10] is 67%. In addition, the viability at 3 µM in the experiment with B16-F10 [12] was found to be 89%.

These data come from ChEMBL document CHEMBL4814037, “Synthesis of pyrazoline fatty chain derivatives and its effects on melanoma cells” (2021).
